Source: patent US20040219097A1, “Composition useful for the diagnosis, imaging and treatment of tumors” (priority 2003, published 2004)

Experiments:
JJ5 Breast Cancer cells [1] = assay: Growth inhibition assay against JJ5 breast cancer cells; assay type: cell-based, human; conditions: 4 days culture
Method: Growth medium was added and the cells were cultured at 37° C./5% CO^2 for 4 days. The cells were then recovered by trypsinization and counted in a hemocytometer. Control dishes contained cells cultured in growth medium containing ^111In-DTPA or growth medium alone.

JJ5 Breast Cancer cells [2] = assay: Cytotoxicity (colony-forming) assay against JJ5 breast cancer cells; assay type: cell-based, human; conditions: 14 days
Method: The number of cells seeded was varied from 3×10^4 to 3×10^6cells to obtain approximately 400 viable colonies/dish taking into account the plating efficiency and the expected level of cytotoxicity. Control dishes contained JJ5 breast cancer cells which were incubated with normal saline. Growth medium was added and the cells were cultured at 37° C./5% CO^2 for 14 days. The growth medium was removed and the colonies were stained with methylene blue (1% in a 1:1 mixture of ethanol and water) then washed twice. The number of colonies per dish was counted using a manual colony counter (Manostat Corp). The plating efficiency was calculated by dividing the number of colonies observed by the number of cells seeded in each dish.

JJ5 Breast Cancer cells [3] = assay: Binding of EGF-^111In-labeled transferrin compound to breast cancer cells (radioligand binding, kinetics, retention); set-up: species or system human
Method: For the normal breast cell line HBL-100, 8000 EGFR/cell has been reported. The expression of EGFR in breast cancer cell lines has a reported range of 800 EGFR/cell for MCF-7 cells to 10^6 EGFR/cell for MDA-MB-468 cells. […] Utilizing the Auger electron emitter ^111In was used in the initial experiments to illustrate the utility of the invention using EGF-^111In-labeled transferrin compounds. The EGF-^111In-labeled transferrin (0.25-80 ng) was incubated with 1.5×10^6 cells/dish JJ5 Breast Cancer (prepared from BCBM JJ5) cells in 1 mL of 0.1% human serum albumin in 35 mm multiwell culture dishes at 37° C. for 30 minutes. The cells were transferred to a centrifuge tube and centrifuged. The cell pellet was separated from the supernatant and counted in a g-scintillation counter to determine bound (B) and free (F) radioactivity. Non-specific binding was determined by conducting the assay in 100 nM hEGF. […] Internalized fraction was measured by determining the proportion of radioactivity which could not be displaced from the cell surface by 100 nM hEGF. Cell-associated binding (surface-binding and intracellular accumulation) was expressed as a percentage of medium radioactivity bound per mg of cell study protein.

| Molecule | growth inhibition of the JJ5 cells compared to the medium control (JJ5 Breast Cancer cells [1]; 3.5 pCi/cell) [%] | cell killing (JJ5 Breast Cancer cells [2]; <6 pCi/cell) | internalization by cancer cells, in words (JJ5 Breast Cancer cells [3]) | binding by the breast cancer cells (kinetics, in words) (JJ5 Breast Cancer cells [3]; JJ5 cells, 37° C.) | retained by the breast cancer cells (JJ5 Breast Cancer cells [3]; JJ5 cells, 37° C.) | affinity constant for binding to JJ5 cells (JJ5 Breast Cancer cells [3]; JJ5 cells, 37° C., 30 minutes) [L/mol] | growth inhibition of the JJ5 cells compared to the medium control (JJ5 Breast Cancer cells [1]; 3.4 pCi/cell) [%] | reduction in cell survival for JJ5 cells (JJ5 Breast Cancer cells [2]; 8 pCi/cell) [%] |
| --- | --- | --- | --- | --- | --- | --- | --- | --- |
| [In+3].[O-]c1cccc2cccnc12.[O-]c1cccc2cccnc12.[O-]c1cccc2cccnc12 [^111In-oxine, reference compound] | 91 | greater than 99% | – | – | – | – | – | – |
| EGF-^111In-labeled transferrin compound: human EGF linked to ^111In-labeled human transferrin | – | – | rapidly internalized | rapidly bound | at least 24 hours | 8e+08 | 83 | 99 |
